These are literature values, as cited in patent US20200338057A1, “Methods of Treating Prostate Cancer Based on Molecular Subtypes” (Janssen Pharmaceutica NV, priority 2019, published 2020).

The subject of series [1] is noncastrate hormone-sensitive and bicalutamide-resistant human prostate cancer xenograft models. Particulars: noncastrate hormone-sensitive and bicalutamide-resistant human prostate cancer xenografts. Background: Xenograft models place foreign cells or tissue in a host animal.

Consider `CNC(=O)c1ccc(N2C(=S)N(c3cnc(C#N)c(C(F)(F)F)c3)C(=O)C23CCC3)cc1F` [Apalutamide, 4-[7-(6-cyano-5-trifluoromethylpyridin-3-yl)-8-oxo-6-thioxo-5,7-diazaspiro[3.4]oct-5-yl]-2-fluoro-N-methylbenzamide], for which, in series [1], the “Tumor response in xenograft models” value is “partial or complete tumor regression”.
As to `CC(O)c1cc(C(=O)N[C@@H](C)Cn2ccc(-c3ccc(C#N)c(Cl)c3)n2)[nH]n1` (some centres unmarked) [Darolutamide, darolutamide], the AR binding affinity result in the series on AR is given as “high affinity”.
